Laboratory results published in the NIST ThermoML archive (doi:10.1016/j.jct.2004.06.001).

Test: mn = molality of the nth substance listed, in mol/kg
Settings: Liquid

[I-].[Li+] [lithium iodide] + O
Settings | mass density [kg/m3]
296.95 K, 2530 kPa, m1 = 1.605 | 1145.62
296.95 K, 7845 kPa, m1 = 1.605 | 1148.05
296.95 K, 17808 kPa, m1 = 1.605 | 1152.57
296.95 K, 25811 kPa, m1 = 1.605 | 1156.03
297.35 K, 2354 kPa, m1 = 0.6621 | 1061.06
297.35 K, 12415 kPa, m1 = 0.6621 | 1065.64
297.35 K, 21241 kPa, m1 = 0.6621 | 1069.52
297.35 K, 29243 kPa, m1 = 0.6621 | 1072.92
298.15 K, 101.33 kPa, m1 = 0.0906 | 1005.8
298.15 K, 101.33 kPa, m1 = 0.2832 | 1024.34
298.15 K, 101.33 kPa, m1 = 0.6621 | 1059.93
298.15 K, 101.33 kPa, m1 = 1.605 | 1144.13
298.15 K, 101.33 kPa, m1 = 3.089 | 1266.24
308.15 K, 101.33 kPa, m1 = 0.0906 | 1002.8
308.15 K, 101.33 kPa, m1 = 0.2832 | 1021.1
308.15 K, 101.33 kPa, m1 = 0.6621 | 1056.4
308.15 K, 101.33 kPa, m1 = 1.605 | 1139.99
308.15 K, 101.33 kPa, m1 = 3.089 | 1261.08
310.65 K, 2040 kPa, m1 = 3.089 | 1260.87
310.65 K, 17475 kPa, m1 = 3.089 | 1267.92
310.65 K, 24026 kPa, m1 = 3.089 | 1270.75
313 K, 3020 kPa, m1 = 0.2832 | 1020.66
313 K, 10866 kPa, m1 = 0.2832 | 1024.09
313 K, 21163 kPa, m1 = 0.2832 | 1028.44
313 K, 31204 kPa, m1 = 0.2832 | 1032.59
313.75 K, 2275 kPa, m1 = 0.0906 | 1001.71
313.75 K, 12572 kPa, m1 = 0.0906 | 1006.16
313.75 K, 28596 kPa, m1 = 0.0906 | 1012.88
318.15 K, 101.33 kPa, m1 = 0.0906 | 998.97
318.15 K, 101.33 kPa, m1 = 0.2832 | 1017.22
318.15 K, 101.33 kPa, m1 = 0.6621 | 1052.27
318.15 K, 101.33 kPa, m1 = 1.605 | 1135.39
318.15 K, 101.33 kPa, m1 = 3.089 | 1255.57
328.15 K, 101.33 kPa, m1 = 0.0906 | 994.42
328.15 K, 101.33 kPa, m1 = 0.2832 | 1012.6
328.15 K, 101.33 kPa, m1 = 0.6621 | 1047.5
328.15 K, 101.33 kPa, m1 = 1.605 | 1130.28
328.15 K, 101.33 kPa, m1 = 3.089 | 1249.72
338.15 K, 101.33 kPa, m1 = 0.0906 | 989.22
338.15 K, 101.33 kPa, m1 = 0.2832 | 1007.35
338.15 K, 101.33 kPa, m1 = 0.6621 | 1042.13
338.15 K, 101.33 kPa, m1 = 1.605 | 1124.64
338.15 K, 101.33 kPa, m1 = 3.089 | 1243.52
348.15 K, 101.33 kPa, m1 = 0.0906 | 983.48
348.15 K, 101.33 kPa, m1 = 0.2832 | 1001.55
348.15 K, 101.33 kPa, m1 = 0.6621 | 1036.22
348.15 K, 101.33 kPa, m1 = 1.605 | 1118.49
348.15 K, 101.33 kPa, m1 = 3.089 | 1236.98
348.4 K, 2157 kPa, m1 = 0.6621 | 1037.06
348.4 K, 11670 kPa, m1 = 0.6621 | 1041.32
348.4 K, 23850 kPa, m1 = 0.6621 | 1046.48
348.4 K, 29910 kPa, m1 = 0.6621 | 1048.86
348.45 K, 3334 kPa, m1 = 0.2832 | 1002.87
348.45 K, 13808 kPa, m1 = 0.2832 | 1007.4
348.45 K, 22536 kPa, m1 = 0.2832 | 1011.08
348.45 K, 27851 kPa, m1 = 0.2832 | 1013.21
348.5 K, 3589 kPa, m1 = 1.605 | 1119.98
348.5 K, 10787 kPa, m1 = 1.605 | 1123.27
348.5 K, 21516 kPa, m1 = 1.605 | 1128.02
348.5 K, 27694 kPa, m1 = 1.605 | 1130.57
349.05 K, 2275 kPa, m1 = 0.0906 | 983.91
349.05 K, 7668 kPa, m1 = 0.0906 | 986.28
349.05 K, 16573 kPa, m1 = 0.0906 | 990.13
349.05 K, 21241 kPa, m1 = 0.0906 | 992.14
373.2 K, 6276 kPa, m1 = 3.089 | 1222.39
373.2 K, 17358 kPa, m1 = 3.089 | 1227.68
373.2 K, 24674 kPa, m1 = 3.089 | 1230.96
398.15 K, 3432 kPa, m1 = 0.0906 | 949.25
398.15 K, 5511 kPa, m1 = 0.6621 | 1002.67
398.15 K, 8728 kPa, m1 = 0.0906 | 951.87
398.15 K, 15593 kPa, m1 = 0.6621 | 1007.74
398.15 K, 16181 kPa, m1 = 0.0906 | 955.54
398.15 K, 22554 kPa, m1 = 0.6621 | 1011.13
398.15 K, 22710 kPa, m1 = 0.0906 | 958.45
398.15 K, 29087 kPa, m1 = 0.6621 | 1013.99
398.2 K, 2942 kPa, m1 = 1.605 | 1082.97
398.2 K, 10787 kPa, m1 = 1.605 | 1087.05
398.2 K, 21025 kPa, m1 = 1.605 | 1092.08
398.2 K, 28753 kPa, m1 = 1.605 | 1095.49
398.3 K, 3511 kPa, m1 = 0.2832 | 967.1
398.3 K, 11925 kPa, m1 = 0.2832 | 971.24
398.3 K, 21398 kPa, m1 = 0.2832 | 975.83
398.3 K, 30636 kPa, m1 = 0.2832 | 979.93
448.15 K, 4570 kPa, m1 = 3.089 | 1157.85
448.15 K, 4903 kPa, m1 = 0.2832 | 922.17
448.15 K, 14573 kPa, m1 = 3.089 | 1163.98
448.15 K, 15593 kPa, m1 = 0.2832 | 928.54
448.15 K, 22869 kPa, m1 = 3.089 | 1168.32
448.15 K, 24340 kPa, m1 = 0.2832 | 933.52
448.3 K, 3668 kPa, m1 = 0.0906 | 902.88
448.3 K, 7924 kPa, m1 = 0.0906 | 905.5
448.3 K, 15436 kPa, m1 = 0.0906 | 910.16
448.3 K, 21810 kPa, m1 = 0.0906 | 913.8
448.33 K, 4805 kPa, m1 = 0.6621 | 957.8
448.33 K, 15200 kPa, m1 = 0.6621 | 963.27
448.33 K, 24026 kPa, m1 = 0.6621 | 968.45
448.33 K, 28675 kPa, m1 = 0.6621 | 970.94
448.45 K, 3099 kPa, m1 = 1.605 | 1038.18
448.45 K, 10375 kPa, m1 = 1.605 | 1042.6
448.45 K, 25497 kPa, m1 = 1.605 | 1050.41
472.53 K, 8081 kPa, m1 = 0.2832 | 897.8
472.53 K, 16985 kPa, m1 = 0.2832 | 904
472.53 K, 23614 kPa, m1 = 0.2832 | 908.3
474.75 K, 6943 kPa, m1 = 1.605 | 1014.9
474.75 K, 13317 kPa, m1 = 1.605 | 1020.2
474.75 K, 24595 kPa, m1 = 1.605 | 1027
475 K, 6198 kPa, m1 = 0.6621 | 929.3
475 K, 15926 kPa, m1 = 0.6621 | 936.2
475 K, 24517 kPa, m1 = 0.6621 | 941.7
479.05 K, 7590 kPa, m1 = 3.089 | 1129.2
479.05 K, 16907 kPa, m1 = 3.089 | 1135.6
479.05 K, 21771 kPa, m1 = 3.089 | 1138.5
521.05 K, 7924 kPa, m1 = 0.6621 | 872.4
521.05 K, 11846 kPa, m1 = 0.6621 | 876.3
521.05 K, 18221 kPa, m1 = 0.6621 | 882.3
522.63 K, 9473 kPa, m1 = 0.2832 | 834.6
522.63 K, 21516 kPa, m1 = 0.2832 | 846.6
522.63 K, 27047 kPa, m1 = 0.2832 | 851.1
522.91 K, 8493 kPa, m1 = 1.605 | 961.6
522.91 K, 14867 kPa, m1 = 1.605 | 967.1
522.91 K, 20050 kPa, m1 = 1.605 | 971.2
523.15 K, 7178 kPa, m1 = 3.089 | 1079.91
523.15 K, 12415 kPa, m1 = 3.089 | 1084.49
523.15 K, 21810 kPa, m1 = 3.089 | 1091.96
572.75 K, 12415 kPa, m1 = 0.6621 | 795.1
572.75 K, 19201 kPa, m1 = 0.6621 | 806
572.75 K, 24419 kPa, m1 = 0.6621 | 813.4
573.15 K, 11591 kPa, m1 = 1.605 | 896.3
573.15 K, 16338 kPa, m1 = 1.605 | 902.6
573.15 K, 20672 kPa, m1 = 1.605 | 907.3
575.75 K, 15022 kPa, m1 = 0.2832 | 750.9
575.75 K, 19201 kPa, m1 = 0.2832 | 758.8
575.75 K, 24516 kPa, m1 = 0.2832 | 767.7
600.25 K, 12650 kPa, m1 = 3.089 | 1019.35
600.25 K, 18534 kPa, m1 = 3.089 | 1025.9
600.25 K, 22143 kPa, m1 = 3.089 | 1029.61
